Assay results: ChEMBL document CHEMBL3352218, “Structural basis for inhibition of mycobacterial and human adenosine kinase by 7-substituted 7-(Het)aryl-7-deazaadenine ribonucleosides” (J Med Chem, 2014)
Converted amounts (≈) assume the structure as drawn. The source made the active and inactive calls. The rule behind the calls is not given here.

Tests used:
BJ = assay: Cytotoxicity against human BJ cells by MTT assay; assay type: functional
MRC5 = assay: Cytotoxicity against human MRC5 cells by MTT assay; assay type: functional
[1] = system: Mycobacterium tuberculosis; assay: Activity of Mycobacterium tuberculosis ADK expressed in Escherichia coli BL21(DE3) cells assessed as compound phosphorylation by measuring conversion of compound to 5'-phosphate
[2] = system: Mycobacterium tuberculosis; assay: Antimycobacterial activity against Mycobacterium tuberculosis H37Rv My 331/88 assessed as microbial growth inhibition incubated for 14 days; assay type: functional; settings: H37Rv My 331/88, 336 h
[3] = Inhibition of Mycobacterium tuberculosis ADK expressed in Escherichia coli BL21(DE3) cells using [3H]adenosine by liquid scintillation counting method
Adenosine kinase [4] = molecular target: T1, Adenosine kinase (Homo sapiens, UniProt P55263); assay: Activity of human ADK expressed in Escherichia coli BL21(DE3) cells assessed as compound phosphorylation by measuring conversion of compound to 5'-phosphate; set-up: concentration or dose not given beside the values
Target sequence in this assay (P55263 2-362 limits assumed): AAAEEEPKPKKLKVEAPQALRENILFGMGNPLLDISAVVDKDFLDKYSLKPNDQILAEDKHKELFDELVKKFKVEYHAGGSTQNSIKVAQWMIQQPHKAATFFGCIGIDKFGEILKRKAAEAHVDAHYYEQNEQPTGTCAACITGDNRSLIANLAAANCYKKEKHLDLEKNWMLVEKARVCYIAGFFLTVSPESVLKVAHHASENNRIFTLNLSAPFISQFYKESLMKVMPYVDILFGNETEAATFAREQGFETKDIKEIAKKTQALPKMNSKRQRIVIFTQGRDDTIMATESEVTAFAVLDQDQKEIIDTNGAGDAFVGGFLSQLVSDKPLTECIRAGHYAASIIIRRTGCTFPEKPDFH

Adenosine kinase [5] = molecular target: T1, Adenosine kinase; assay: Inhibition of human ADK expressed in Escherichia coli BL21(DE3) cells using [3H]adenosine by liquid scintillation counting method
Target sequence in this assay (P55263 whole entry): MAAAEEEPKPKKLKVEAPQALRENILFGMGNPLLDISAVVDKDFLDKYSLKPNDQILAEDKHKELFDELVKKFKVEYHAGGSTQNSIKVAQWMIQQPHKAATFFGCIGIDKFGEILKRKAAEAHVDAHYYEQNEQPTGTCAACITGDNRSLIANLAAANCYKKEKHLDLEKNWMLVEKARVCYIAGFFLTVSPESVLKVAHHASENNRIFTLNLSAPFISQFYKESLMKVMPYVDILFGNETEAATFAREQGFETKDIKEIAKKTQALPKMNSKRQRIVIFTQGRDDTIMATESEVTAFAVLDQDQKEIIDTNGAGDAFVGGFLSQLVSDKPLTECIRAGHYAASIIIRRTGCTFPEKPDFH

[6] = system: Mycobacterium tuberculosis; assay: Binding affinity to Mycobacterium tuberculosis ADK expressed in Escherichia coli BL21(DE3) cells assessed as relative STD enhancements of signal from H-2 at 500 uM by 1H STD NMR spectroscopy
Adenosine kinase [7] = molecular target: T1, Adenosine kinase; assay: Binding affinity to human ADK expressed in Escherichia coli BL21(DE3) cells assessed as relative STD enhancements of signal from H-8 at 500 uM by 1H STD NMR spectroscopy
Target sequence in this assay (P55263 2-362 limits assumed): as the sequence (P55263 2-362 limits assumed) above

[8] = system: Mycobacterium tuberculosis; assay: Binding affinity to Mycobacterium tuberculosis ADK expressed in Escherichia coli BL21(DE3) cells assessed as relative STD enhancements of signal from H-1' at 500 uM by 1H STD NMR spectroscopy
[9] = system: Mycobacterium tuberculosis; assay: Binding affinity to Mycobacterium tuberculosis ADK expressed in Escherichia coli BL21(DE3) cells assessed as relative STD enhancements of signal from H-8 at 500 uM by 1H STD NMR spectroscopy
Adenosine kinase [10] = molecular target: T1, Adenosine kinase; assay: Binding affinity to human ADK expressed in Escherichia coli BL21(DE3) cells assessed as relative STD enhancements of signal from H-2 at 500 uM by 1H STD NMR spectroscopy
Target sequence in this assay (P55263 2-362 limits assumed): as above

Adenosine kinase [11] = molecular target: T1, Adenosine kinase; assay: Binding affinity to human ADK expressed in Escherichia coli BL21(DE3) cells assessed as relative STD enhancements of signal from H-1' at 500 uM by 1H STD NMR spectroscopy
Target sequence in this assay (P55263 2-362 limits assumed): as above

| SMILES | CC50 (BJ) [µM] | CC50 (MRC5) [µM] | Activity [1] | MIC [2] [µM] | IC50 [3] [µM] | Activity (Adenosine kinase [4]) [%] | IC50 (Adenosine kinase [5]) [µM] | Activity [6] [%] | Activity (Adenosine kinase [7]) [%] | Activity [8] [%] | Activity [9] [%] | Activity (Adenosine kinase [10]) [%] | Activity (Adenosine kinase [11]) [%] |
| --- | --- | --- | --- | --- | --- | --- | --- | --- | --- | --- | --- | --- | --- |
| Nc1ncnc2c1c(-c1cc[nH]n1)cn2[C@@H]1O[C@H](CO)[C@@H](O)[C@H]1O | 9.51 | 0.18 | inactive | > 250 | > 10 | 7 |  |  |  |  |  |  |  |
| Nc1ncnc2c1c(-c1ccc3c(c1)OCO3)cn2[C@@H]1O[C@H](CO)[C@@H](O)[C@H]1O | 15.5 | 46 | inactive | 8 (≈ 3.09 µg/mL) | > 10 |  | > 10 |  |  |  |  |  |  |
| Nc1ncnc2c1c(-c1ccc3ccccc3c1)cn2[C@@H]1O[C@H](CO)[C@@H](O)[C@H]1O | 13.9 | 13.6 | inactive | 2 (≈ 0.785 µg/mL) | 5.33 |  |  |  |  |  |  |  |  |
| Nc1ncnc2c1c(-c1ccsc1)cn2[C@@H]1O[C@H](CO)[C@@H](O)[C@H]1O | 12.9 | 42.5 | inactive | 8 (≈ 2.79 µg/mL) | 6.6 | 2 |  |  |  |  |  |  |  |
| Nc1ncnc2c1c(-c1cccc3c1oc1ccccc13)cn2[C@@H]1O[C@H](CO)[C@@H](O)[C@H]1O | > 100 | 100 | inactive | 4 (≈ 1.73 µg/mL) | 0.6 |  | > 10 |  |  |  |  |  |  |
| Nc1ncnc2c1c(-c1ncc[nH]1)cn2[C@@H]1O[C@H](CO)[C@@H](O)[C@H]1O | 1.48 | 0.15 | inactive | > 250 | > 3 | 19 | > 20 |  |  |  |  |  |  |
| COc1cc(-c2cn([C@@H]3O[C@H](CO)[C@@H](O)[C@H]3O)c3ncnc(N)c23)cc(OC)c1OC | > 100 | > 100 | inactive | 8 (≈ 3.46 µg/mL) | > 10 |  | > 10 |  |  |  |  |  |  |
| CC(C)c1ccc(-c2cn([C@@H]3O[C@H](CO)[C@@H](O)[C@H]3O)c3ncnc(N)c23)cc1 | 63.9 | 52.9 | inactive | 16 (≈ 6.15 µg/mL) | > 10 |  | > 20 |  |  |  |  |  |  |
| Nc1ncnc2c1c(-c1ccc(C(F)(F)F)cc1)cn2[C@@H]1O[C@H](CO)[C@@H](O)[C@H]1O | 62 | 78.8 | inactive | 4 (≈ 1.64 µg/mL) | > 10 |  | > 10 |  |  |  |  |  |  |
| Nc1ncnc2c1c(-c1ccc(COc3cccc4ccccc34)cc1)cn2[C@@H]1O[C@H](CO)[C@@H](O)[C@H]1O | > 100 | 92.1 | inactive | 16 (≈ 7.98 µg/mL) | > 10 |  | > 20 |  |  |  |  |  |  |
| CC(C)(C)c1ccc(-c2cn([C@@H]3O[C@H](CO)[C@@H](O)[C@H]3O)c3ncnc(N)c23)cc1 | > 100 | 96.3 | inactive | 62.5 (≈ 24.9 µg/mL) | > 10 |  | > 20 |  |  |  |  |  |  |
| Nc1ncnc2c1c(-c1ccoc1)cn2[C@@H]1O[C@H](CO)[C@@H](O)[C@H]1O | 91.5 | 67.9 | inactive | 16 (≈ 5.32 µg/mL) | > 10 | 9 |  |  |  |  |  |  |  |
| Nc1ncnc2c1c(/C=C/c1ccccc1)cn2[C@@H]1O[C@H](CO)[C@@H](O)[C@H]1O | 19.6 | 48.2 | inactive | 8 (≈ 2.95 µg/mL) | 0.9 |  | > 10 |  |  |  |  |  |  |
| CC(C)Oc1ccc(-c2cn([C@@H]3O[C@H](CO)[C@@H](O)[C@H]3O)c3ncnc(N)c23)cc1 | 59.9 | 50.2 | inactive | 32 (≈ 12.8 µg/mL) | 13.1 |  | > 10 |  |  |  |  |  |  |
| Nc1ncnc2c1c(-c1cc[nH]c1)cn2[C@@H]1O[C@H](CO)[C@@H](O)[C@H]1O | 10.1 | 5.05 | inactive | 62.5 (≈ 20.7 µg/mL) | > 10 | 20 | 4.5 |  |  |  |  |  |  |
| Nc1ncnc2c1ncn2[C@@H]1O[C@H](COP(=O)(O)OP(=O)(O)OP(=O)(O)O)[C@@H](O)[C@H]1O |  |  |  |  |  |  |  | 57 | < 1 | 100 | 24 | < 1 | 100 |
| Nc1ncnc2c1c(-c1cc3ccccc3o1)cn2[C@@H]1O[C@H](CO)[C@@H](O)[C@H]1O | 21.2 | 35.1 | inactive | 16 (≈ 6.12 µg/mL) | 1.8 |  |  |  |  |  |  |  |  |

| SMILES | CC50 (BJ) [µM] | CC50 (MRC5) [µM] | Activity [1] | MIC [2] [µM] | IC50 [3] [µM] | Activity (Adenosine kinase [4]) [%] | IC50 (Adenosine kinase [5]) [µM] | Activity [6] [%] | Activity (Adenosine kinase [7]) [%] | Activity [8] [%] | Activity [9] [%] | Activity (Adenosine kinase [10]) [%] | Activity (Adenosine kinase [11]) [%] |
| --- | --- | --- | --- | --- | --- | --- | --- | --- | --- | --- | --- | --- | --- |
| Nc1ncnc2c1c(-c1c[nH]nn1)cn2[C@@H]1O[C@H](CO)[C@@H](O)[C@H]1O | 0.08 | 0.1 | inactive | > 250 | > 10 | 37 | > 20 |  |  |  |  |  |  |
| Nc1ncnc2c1ncn2[C@@H]1O[C@H](CO)[C@@H](O)[C@H]1O |  |  |  |  |  |  |  | 44 | 20 | 100 | 58 | 8 | 100 |
| Nc1ncnc2c1c(-c1cccc3c1Sc1ccccc1S3)cn2[C@@H]1O[C@H](CO)[C@@H](O)[C@H]1O | > 100 | 68.5 | inactive | 62.5 (≈ 30 µg/mL) | 2.06 |  | > 10 |  |  |  |  |  |  |
| Nc1ncnc2c1c(-c1ccc[nH]1)cn2[C@@H]1O[C@H](CO)[C@@H](O)[C@H]1O | > 100 | 99.6 | inactive | 62.5 (≈ 20.7 µg/mL) | 4.4 | 6 | > 20 |  |  |  |  |  |  |
| Nc1ncnc2c1c(-c1cc3ccccc3c3ccccc13)cn2[C@@H]1O[C@H](CO)[C@@H](O)[C@H]1O | > 100 | 66 | inactive | 32 (≈ 14.2 µg/mL) | > 10 |  | > 10 |  |  |  |  |  |  |
| Nc1ncnc2c1c(-c1cccc3ccccc13)cn2[C@@H]1O[C@H](CO)[C@@H](O)[C@H]1O | 90.6 | 94.4 | inactive | 32 (≈ 12.6 µg/mL) | > 10 |  |  |  |  |  |  |  |  |
| Nc1ncnc2c1c(-c1c[nH]cn1)cn2[C@@H]1O[C@H](CO)[C@@H](O)[C@H]1O | 0.12 | 0.33 | inactive | > 250 | > 10 | 47 | 13 |  |  |  |  |  |  |
| COc1ccc(-c2cn([C@@H]3O[C@H](CO)[C@@H](O)[C@H]3O)c3ncnc(N)c23)cc1 | 21.9 | 61.4 | inactive | 16 (≈ 5.96 µg/mL) | > 10 |  | > 5 |  |  |  |  |  |  |
| Cc1ccc(-c2cn([C@@H]3O[C@H](CO)[C@@H](O)[C@H]3O)c3ncnc(N)c23)cc1C | 57.3 | 37.9 | inactive | 8 (≈ 2.96 µg/mL) | 4.9 |  | > 20 |  |  |  |  |  |  |
| Nc1ncnc2c1c(-c1cn[nH]c1)cn2[C@@H]1O[C@H](CO)[C@@H](O)[C@H]1O | 48.9 | 71.2 | inactive | 125 (≈ 41.5 µg/mL) | > 5 | 9 | > 10 |  |  |  |  |  |  |
| Nc1ncnc2c1c(-c1ccc3c4c(cccc14)CC3)cn2[C@@H]1O[C@H](CO)[C@@H](O)[C@H]1O | 23.1 | > 100 | inactive | 16 (≈ 6.7 µg/mL) | > 10 |  | > 10 |  |  |  |  |  |  |
| Nc1ncnc2c1c(-c1ccc(-c3ccc4ccccc4c3)cc1)cn2[C@@H]1O[C@H](CO)[C@@H](O)[C@H]1O | 0.12 | 64.2 | inactive | 62.5 (≈ 29.3 µg/mL) | > 10 |  | > 20 |  |  |  |  |  |  |
| Nc1ncnc2c1c(-c1cccs1)cn2[C@@H]1O[C@H](CO)[C@@H](O)[C@H]1O | 65.4 | 39.4 | inactive | 8 (≈ 2.79 µg/mL) | > 10 | 2 |  |  |  |  |  |  |  |
| Nc1ncnc2c1c(-c1ccccc1)cn2[C@@H]1O[C@H](CO)[C@@H](O)[C@H]1O | 50.9 | 21 | inactive | 8 (≈ 2.74 µg/mL) | > 10 |  |  |  |  |  |  |  |  |
| CSc1ccc(-c2cn([C@@H]3O[C@H](CO)[C@@H](O)[C@H]3O)c3ncnc(N)c23)cc1 | 18 | 45.6 | inactive | 4 (≈ 1.55 µg/mL) | > 10 |  |  |  |  |  |  |  |  |
| Nc1ncnc2c1c(-c1ccc(-c3ccccc3)cc1)cn2[C@@H]1O[C@H](CO)[C@@H](O)[C@H]1O | 40.6 | 93.7 | inactive | 4 (≈ 1.67 µg/mL) | 7.67 |  | > 20 |  |  |  |  |  |  |
| NNC(=O)c1ccncc1 [ISONIAZID] |  |  |  | 0.5 (≈ 0.0686 µg/mL) |  |  |  |  |  |  |  |  |  |
